Test systems include HCC-2998 colon; HS 578T breast; SN12C renal; OVCAR-5 ovarian; UACC-62 melanoma; MCF7 breast; 786-0 renal; NCI-H23 lung; K-562 leukemia; MDA-MB-231 breast.
Holding throughout (test): NCI anticancer screen, dose series, 48 h

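Five concentrations, 48 hours, 96-well plates. GI50 marks 50% less growth. TGI: total growth inhibition.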

With `O=C(Oc1ccc(CO[N+](=O)[O-])cc1)c1ccccc1`, the GI50 in the test on HCC-2998 colon was 201 nM; with HS 578T breast it was 91.1 nM; with SN12C renal, 216 nM; in the test on OVCAR-5 ovarian it was 172 nM; with UACC-62 melanoma, 169 nM; in the test with MCF7 breast it was 194 nM. Besides, the GI50 in the test with 786-0 renal was 94.5 nM; in the test with NCI-H23 lung it was 351 nM; in the test with K-562 leukemia, 70.8 nM; in the test on MDA-MB-231 breast, 144 nM. Moreover, the TGI in the test with HCC-2998 colon was 0.447 µM; with HS 578T breast, 0.422 µM; with SN12C renal, 0.701 µM; with OVCAR-5 ovarian, 0.316 µM; in the test on UACC-62 melanoma, 0.396 µM; in the test with MCF7 breast, 0.722 µM. The TGI was determined as 0.235 µM in the test on 786-0 renal, 1.43 µM with NCI-H23 lung, 0.325 µM with K-562 leukemia and 0.306 µM in the test on MDA-MB-231 breast.

`Cc1ccc(S(=O)(=O)c2nc(-c3ccccc3)oc2S(C)=O)cc1` (stereo not given): the GI50 in the test on HCC-2998 colon is 16400 nM; in the test on HS 578T breast it was 5270 nM; in the test on SN12C renal, 1680 nM; in the test with OVCAR-5 ovarian it was 1850 nM; in the test with UACC-62 melanoma, 1500 nM; with MCF7 breast it was 1210 nM. The GI50 in the test on 786-0 renal is 1440 nM; in the test with NCI-H23 lung, 1910 nM; in the test on K-562 leukemia it was 1400 nM; in the test with MDA-MB-231 breast it was 1470 nM. Besides, the TGI came out at 30.4 µM in the test on HCC-2998 colon; 40 µM with HS 578T breast; 3.43 µM in the test with SN12C renal; 3.47 µM in the test on OVCAR-5 ovarian; 2.87 µM in the test with UACC-62 melanoma; 3.62 µM in the test with MCF7 breast. The TGI in the test with 786-0 renal came out at 2.82 µM; with NCI-H23 lung it was 3.97 µM; in the test with K-562 leukemia, 4.77 µM; with MDA-MB-231 breast, 2.87 µM.

Regarding `O=C(NCCc1ccccn1)OCc1nc2nc(Cl)nc(N3CCOCC3)c2[nH]1`, the GI50 with HCC-2998 colon is 1740 nM; in the test with HS 578T breast it was 2710 nM; with SN12C renal, 1500 nM; in the test with OVCAR-5 ovarian, 1670 nM; with UACC-62 melanoma, 1530 nM; with MCF7 breast, 1590 nM. Moreover, the GI50 in the test on 786-0 renal was 1750 nM; in the test with NCI-H23 lung, 1770 nM; with K-562 leukemia, 2070 nM; with MDA-MB-231 breast, 1600 nM. For the same compound, the TGI was determined as 3.33 µM in the test on HCC-2998 colon; 9.77 µM in the test with HS 578T breast; 3.19 µM with SN12C renal; 3.38 µM with OVCAR-5 ovarian; 3.03 µM with UACC-62 melanoma; 5.17 µM in the test with MCF7 breast. Besides, the TGI was found to be 3.52 µM with 786-0 renal, 4.14 µM with NCI-H23 lung, 14.3 µM in the test on K-562 leukemia and 3.17 µM with MDA-MB-231 breast.

For `CSCCCNC(=O)c1ccc2c(c1)/C(=C/c1[nH]c(C)cc1C)C(=O)N2`, the GI50 with HCC-2998 colon was 4950 nM; in the test with HS 578T breast, 853 nM; in the test on SN12C renal, 571 nM; with OVCAR-5 ovarian, 3850 nM; in the test with UACC-62 melanoma, 687 nM; in the test with MCF7 breast, 4050 nM. Further, the GI50 in the test with 786-0 renal is 1930 nM; with NCI-H23 lung, 1590 nM; with K-562 leukemia it was 2010 nM; with MDA-MB-231 breast it was 2870 nM. The TGI in the test with HCC-2998 colon, in the test on HS 578T breast, in the test with SN12C renal, in the test with OVCAR-5 ovarian, with UACC-62 melanoma and with MCF7 breast was over 100 µM throughout. Besides, the TGI with 786-0 renal, in the test on NCI-H23 lung, with K-562 leukemia and in the test with MDA-MB-231 breast was over 100 µM in each case.

For `COC(=O)C1=C(C(=O)OC)C2(C)C=CC1O2` (stereo not given), the TGI was 29.8 µM with HCC-2998 colon; 72 µM with HS 578T breast; 31.3 µM in the test with SN12C renal; 31.5 µM in the test on OVCAR-5 ovarian; 31.9 µM with UACC-62 melanoma; over 100 µM with MCF7 breast. Further, the TGI in the test on 786-0 renal was found to be 14.4 µM; with NCI-H23 lung, 32.4 µM; in the test with K-562 leukemia, 19.4 µM; with MDA-MB-231 breast, 31 µM.

On to `Cc1nc(Nc2ccccn2)sc1C(=O)/C=C/c1ccc(Cl)cc1`, for which the GI50 in the test on HCC-2998 colon is 383 nM; in the test on HS 578T breast, 398 nM; with SN12C renal it was 547 nM; with OVCAR-5 ovarian it was 587 nM; in the test on UACC-62 melanoma, 631 nM; in the test with MCF7 breast, 344 nM. Besides, the GI50 is 549 nM in the test with 786-0 renal, 567 nM in the test on NCI-H23 lung, 395 nM in the test on K-562 leukemia and 366 nM in the test with MDA-MB-231 breast. The TGI in the test on HCC-2998 colon is 9.62 µM; in the test with HS 578T breast, over 100 µM; in the test on SN12C renal it was over 47.4 µM; with OVCAR-5 ovarian, over 79.4 µM; in the test with UACC-62 melanoma it was 49.8 µM; in the test on MCF7 breast, over 100 µM. For the same compound, the TGI in the test on 786-0 renal is over 47.2 µM; with NCI-H23 lung, over 100 µM; in the test on K-562 leukemia, over 100 µM; with MDA-MB-231 breast, 3.58 µM.

These data come from PubChem BioAssay (NCI).
